From patent US20220160716A1 (SORBONNE UNIVERSITE, priority 2019, published 2022)
“Also recorded” adds a separate entry of the source.

Assays:
CDK5/p25 = biological target: T1, CDK5/p25 (Homo sapiens, UniProt Q00535); format: biochemical; details: activator p25; read-out: IC50 of protein kinases, CDK5/p25
T1 construct: made in house

ABCB4-WT = biological target: T2, ABCB4-WT (Homo sapiens, UniProt P21439); assay: ABCB4-mediated phosphatidylcholine secretion, HEK cells expressing ABCB4-WT; format: cell-based; details: for inhibition of ABCB4-WT-mediated PC secretion compared to roscovitine: 10 μM and 25 μM; for log IC50 on the PC secretion activity of ABCB4-WT / IC50: from dose-response curves of FIG. 4C; for IC50: read-out: IC50 on the PC secretion activity of ABCB4-WT
T2 construct: The subcloning of wild type (WT) ABCB4, isoform A (NM_000443.3), into pcDNA3 vector has been described; expressed in transfected cells; host or cells: HEK-293
Experimental: (§1) Cyclosporin A (CsA) was from Santa Cruz Biotechnologies (Dallas, Tex.). […] Each compound was solubilized in dimethylsulfoxide (DMSO) as 1000× concentrated stock solutions in order to treat cells with 5 μM to 100 μM final concentrations, using DMSO as control vehicle at the same dilution (0.1% DMSO for all conditions). The cells were treated 24 hours post-transfection with these drugs during 16 hours, except for the viability assays for which cells were treated during three days. After drug treatment, cells were used for immunoanalyses, cell viability assays or PC secretion assays.
(§2) HEK cells were seeded in 0.01% poly-L-lysine (Sigma) pre-coated 6-well plates of 10 cm^2 area per well (1.3×10^6 cells per well). After transient transfection of the empty vector (control), plasmids encoding ABCB4-WT or its variants, cells were incubated during 24 hours at 37° C. in serum-free medium supplemented with 0.5 mM sodium taurocholate (Sigma) and 0.02% fatty acid-free bovine serum albumin (Sigma). Then, the secreted PC was quantified from the collected media using a fluoro-enzymatic assay previously described (12). Each condition was analysed in triplicate, after background subtraction, and results were normalized to the expression levels of ABCB4 determined by immunoblots of the corresponding cell lysates.

CDK2/A = biological target: T3, CDK2/A (Homo sapiens, UniProt P24941); assay: Protein kinase catalytic activity assay, CDK2/cyclin A; format: biochemical; details: activator cyclin A; read-out: IC50 of protein kinases, CDK2/A
T3 construct: made in house

DYRK1A = biological target: T4, DYRK1A (Homo sapiens, UniProt Q13627); assay: Protein kinase catalytic activity assay, DYRK1A; format: biochemical; details: read-out: IC50 of protein kinases, DYRK1A
T4 construct: made in house

ABCB4-I490T = ABCB4-I490T (Homo sapiens, UniProt P21439, I490T); assay: Canalicular localisation of ABCB4-I490T by indirect immunofluorescence in HepG2 cells; format: cell-based; design: The subcloning of wild type (WT) ABCB4, isoform A (NM_000443.3), into pcDNA3 vector has been described; expressed in transfected cells; host or cells: HepG2 (immunofluorescence); details: 25 μM
Experimental: For indirect immunofluorescence, HepG2 cells were grown on glass coverslips and after transfection and treatments, they were fixed and permeabilized during 1 min at −20° C. in ice-cold methanol. Then ABCB4 and ABCC2 were immunolabelled using the mouse monoclonal P3II-26 (IgG2b) and M2I-4 (IgG1) antibodies (Enzo Life Sciences), respectively. AlexaFluor® 555 and AlexaFluor® 488 conjugated isotype-specific secondary antibodies (Thermo Fisher Scientific) and Hoechst 33342 (Thermo Fisher Scientific) were used to label ABCB4, ABCC2 and nuclei, respectively. Images were acquired using an IX83 inverted fluorescence microscope from Olympus (Rungis, France), equipped with a UPLSAPO 60XS2 silicone immersion objective and a Hamamatsu ORCA Flash4.0 digital CMOS camera, and analysed using Olympus CellSens Dimension Desktop version 1.16 and Adobe Photoshop version 8.0.1. For each experiment, all images were acquired with constant settings (acquisition time and correction of signal intensities).

ABCB4-I541F [1] = biological target: T5, ABCB4-I541F (Homo sapiens, UniProt P21439, I541F); assay: Maturation of ABCB4-I541F by immunoblot in HEK cells; format: cell-based; design: The subcloning of wild type (WT) ABCB4, isoform A (NM_000443.3), into pcDNA3 vector has been described; expressed in transfected cells; host or cells: HEK-293 (immunoblot, PC secretion); details: for maturation (mature form) of ABCB4-I541F: HEK cells, 100 μM, 16 hours, immunoblot; for correction of ABCB4-I541F maturation: HEK cells, 5, 10 and 25 μM
Experimental: as §1
Western blots and indirect immunofluorescence were performed as previously described (2, 12). […] Signals were detected with ECL prime western blotting detection reagent (GE Healthcare, Velizy-Villacoublay, France) and quantified in the linear range of detection using ImageJ 1.50i software (U.S. National Institutes of Health, Bethesda, Md.).

ABCB4-I541F [2] = biological target: T5, ABCB4-I541F; assay: ABCB4-mediated phosphatidylcholine secretion, HEK cells expressing ABCB4-I541F; format: cell-based; design: The subcloning of wild type (WT) ABCB4, isoform A (NM_000443.3), into pcDNA3 vector has been described; expressed in transfected cells; host or cells: HEK-293 (immunoblot, PC secretion); details: 25 μM, maximal activity = cells expressing ABCB4-WT, vehicle 7.1±0.8%
Experimental: as §1, §2

CLK1 = biological target: T6, CLK1 (Homo sapiens, UniProt P49759); assay: Protein kinase catalytic activity assay, CLK1; format: biochemical; details: read-out: IC50 of protein kinases, CLK1
T6 construct: made in house

CK1 = assay: Protein kinase catalytic activity assay, CK1; format: biochemical; details: read-out: IC50 of protein kinases, CK1
ABCB4-I541F [3] = biological target: T5, ABCB4-I541F; assay: Canalicular localisation of ABCB4-I541F by indirect immunofluorescence in HepG2 cells; format: cell-based; design: The subcloning of wild type (WT) ABCB4, isoform A (NM_000443.3), into pcDNA3 vector has been described; expressed in transfected cells; host or cells: HepG2 (immunofluorescence); details: 16 hours
Experimental: For indirect immunofluorescence, HepG2 cells were grown on glass coverslips and after transfection and treatments, they were fixed and permeabilized during 1 min at −20° C. in ice-cold methanol. Then ABCB4 and ABCC2 were immunolabelled using the mouse monoclonal P3II-26 (IgG2b) and M2I-4 (IgG1) antibodies (Enzo Life Sciences), respectively. […] For each experiment, all images were acquired with constant settings (acquisition time and correction of signal intensities).

GSK3 = GSK3 (Homo sapiens, UniProt P49841); assay: Protein kinase catalytic activity assay, GSK3; format: biochemical; details: read-out: IC50 of protein kinases, GSK3

T1 sequence (Q00535 whole entry, species assumed): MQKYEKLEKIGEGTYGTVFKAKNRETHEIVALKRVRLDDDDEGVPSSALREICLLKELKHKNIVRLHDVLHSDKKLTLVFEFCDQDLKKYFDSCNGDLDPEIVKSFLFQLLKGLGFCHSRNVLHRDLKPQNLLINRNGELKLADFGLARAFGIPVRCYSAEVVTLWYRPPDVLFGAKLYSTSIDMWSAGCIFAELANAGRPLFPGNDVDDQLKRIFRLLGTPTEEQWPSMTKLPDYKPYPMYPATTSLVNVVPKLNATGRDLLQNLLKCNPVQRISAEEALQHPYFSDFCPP
T1 sequence (Q15078 99-307 partner limits assumed, species assumed): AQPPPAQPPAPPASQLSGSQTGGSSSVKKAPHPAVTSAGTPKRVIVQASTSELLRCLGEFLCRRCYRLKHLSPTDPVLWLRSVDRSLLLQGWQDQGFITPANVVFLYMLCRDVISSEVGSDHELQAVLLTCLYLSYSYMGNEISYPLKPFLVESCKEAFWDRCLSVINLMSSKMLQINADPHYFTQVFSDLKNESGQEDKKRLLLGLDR
T6 sequence (P49759 whole entry): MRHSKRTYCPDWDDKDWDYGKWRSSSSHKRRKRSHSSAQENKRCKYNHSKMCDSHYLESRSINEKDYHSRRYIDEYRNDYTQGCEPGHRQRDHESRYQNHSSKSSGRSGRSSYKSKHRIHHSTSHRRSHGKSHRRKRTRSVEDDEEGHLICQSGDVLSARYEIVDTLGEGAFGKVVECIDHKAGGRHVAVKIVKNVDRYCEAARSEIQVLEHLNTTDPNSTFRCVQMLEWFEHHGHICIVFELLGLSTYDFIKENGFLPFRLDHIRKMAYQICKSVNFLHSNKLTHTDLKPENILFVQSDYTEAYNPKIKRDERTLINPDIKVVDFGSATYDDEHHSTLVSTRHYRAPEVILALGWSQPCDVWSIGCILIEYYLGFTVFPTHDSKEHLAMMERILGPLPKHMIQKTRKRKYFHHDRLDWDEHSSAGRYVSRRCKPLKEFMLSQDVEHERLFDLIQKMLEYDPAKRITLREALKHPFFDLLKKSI
T5 sequence (P21439 1-1279 isoform P21439-2 I541F): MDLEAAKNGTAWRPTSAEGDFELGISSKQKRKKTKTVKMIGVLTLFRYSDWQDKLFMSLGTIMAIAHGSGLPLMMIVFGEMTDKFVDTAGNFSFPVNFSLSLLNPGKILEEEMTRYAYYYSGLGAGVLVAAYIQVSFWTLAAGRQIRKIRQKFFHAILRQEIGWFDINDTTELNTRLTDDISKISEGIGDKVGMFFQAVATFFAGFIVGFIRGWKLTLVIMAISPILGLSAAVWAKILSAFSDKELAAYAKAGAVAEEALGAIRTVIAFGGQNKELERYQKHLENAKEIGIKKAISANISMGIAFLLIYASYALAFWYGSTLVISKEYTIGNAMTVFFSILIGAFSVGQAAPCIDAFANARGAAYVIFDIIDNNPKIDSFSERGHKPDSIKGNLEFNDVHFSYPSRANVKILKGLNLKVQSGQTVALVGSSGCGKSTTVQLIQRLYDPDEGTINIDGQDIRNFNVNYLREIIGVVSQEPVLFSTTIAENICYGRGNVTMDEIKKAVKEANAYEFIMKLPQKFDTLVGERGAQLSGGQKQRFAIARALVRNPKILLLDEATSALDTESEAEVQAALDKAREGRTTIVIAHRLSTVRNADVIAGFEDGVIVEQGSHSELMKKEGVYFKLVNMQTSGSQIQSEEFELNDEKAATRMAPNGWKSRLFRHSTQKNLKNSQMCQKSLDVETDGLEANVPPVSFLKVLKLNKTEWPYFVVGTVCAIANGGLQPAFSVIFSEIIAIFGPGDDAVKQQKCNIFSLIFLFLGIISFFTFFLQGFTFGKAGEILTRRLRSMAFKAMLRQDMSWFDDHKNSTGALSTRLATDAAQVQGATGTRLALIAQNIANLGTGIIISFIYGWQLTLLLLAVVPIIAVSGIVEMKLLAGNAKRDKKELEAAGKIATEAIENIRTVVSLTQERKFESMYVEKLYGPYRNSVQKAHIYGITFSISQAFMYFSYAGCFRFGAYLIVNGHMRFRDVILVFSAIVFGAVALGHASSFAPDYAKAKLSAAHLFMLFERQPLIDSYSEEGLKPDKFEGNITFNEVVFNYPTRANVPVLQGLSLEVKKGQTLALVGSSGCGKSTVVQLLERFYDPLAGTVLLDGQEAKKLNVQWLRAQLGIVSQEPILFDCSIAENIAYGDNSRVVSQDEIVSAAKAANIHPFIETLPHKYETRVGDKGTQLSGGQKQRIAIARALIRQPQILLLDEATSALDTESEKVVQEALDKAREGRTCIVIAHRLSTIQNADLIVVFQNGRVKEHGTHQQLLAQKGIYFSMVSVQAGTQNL
ABCB4-I490T, sequence (P21439 1-1279 isoform P21439-2 I490T): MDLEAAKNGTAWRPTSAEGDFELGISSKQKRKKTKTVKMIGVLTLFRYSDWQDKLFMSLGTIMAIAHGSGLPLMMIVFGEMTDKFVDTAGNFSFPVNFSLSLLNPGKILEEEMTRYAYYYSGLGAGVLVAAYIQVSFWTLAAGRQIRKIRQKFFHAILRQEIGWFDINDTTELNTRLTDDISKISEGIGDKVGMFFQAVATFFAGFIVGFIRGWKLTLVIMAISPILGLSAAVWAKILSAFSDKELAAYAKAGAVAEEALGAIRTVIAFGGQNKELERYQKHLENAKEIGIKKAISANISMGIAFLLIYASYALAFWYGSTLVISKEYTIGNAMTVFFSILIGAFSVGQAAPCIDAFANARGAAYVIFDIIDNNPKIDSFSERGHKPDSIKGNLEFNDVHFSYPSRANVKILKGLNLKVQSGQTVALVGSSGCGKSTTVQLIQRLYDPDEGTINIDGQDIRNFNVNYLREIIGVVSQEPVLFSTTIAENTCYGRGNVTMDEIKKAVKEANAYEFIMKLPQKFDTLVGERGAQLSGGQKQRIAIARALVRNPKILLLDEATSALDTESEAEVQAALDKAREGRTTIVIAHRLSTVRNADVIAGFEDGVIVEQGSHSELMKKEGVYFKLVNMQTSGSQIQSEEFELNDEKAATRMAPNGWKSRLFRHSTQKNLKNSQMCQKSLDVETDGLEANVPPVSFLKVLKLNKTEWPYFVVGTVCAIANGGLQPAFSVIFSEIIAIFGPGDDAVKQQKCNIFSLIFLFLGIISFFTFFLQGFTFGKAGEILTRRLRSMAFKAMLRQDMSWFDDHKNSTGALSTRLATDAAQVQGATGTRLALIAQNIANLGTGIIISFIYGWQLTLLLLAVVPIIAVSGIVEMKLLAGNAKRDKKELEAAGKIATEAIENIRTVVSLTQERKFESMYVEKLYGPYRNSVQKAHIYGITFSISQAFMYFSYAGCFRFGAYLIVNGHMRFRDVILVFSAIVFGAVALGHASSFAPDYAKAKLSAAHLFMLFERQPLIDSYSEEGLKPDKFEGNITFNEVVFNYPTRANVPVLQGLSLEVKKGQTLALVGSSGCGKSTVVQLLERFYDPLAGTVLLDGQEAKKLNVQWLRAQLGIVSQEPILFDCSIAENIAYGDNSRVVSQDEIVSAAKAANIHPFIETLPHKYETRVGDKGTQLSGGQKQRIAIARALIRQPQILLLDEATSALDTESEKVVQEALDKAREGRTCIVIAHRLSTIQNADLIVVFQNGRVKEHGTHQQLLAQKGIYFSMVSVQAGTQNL
T2 sequence (P21439 1-1279 isoform P21439-2): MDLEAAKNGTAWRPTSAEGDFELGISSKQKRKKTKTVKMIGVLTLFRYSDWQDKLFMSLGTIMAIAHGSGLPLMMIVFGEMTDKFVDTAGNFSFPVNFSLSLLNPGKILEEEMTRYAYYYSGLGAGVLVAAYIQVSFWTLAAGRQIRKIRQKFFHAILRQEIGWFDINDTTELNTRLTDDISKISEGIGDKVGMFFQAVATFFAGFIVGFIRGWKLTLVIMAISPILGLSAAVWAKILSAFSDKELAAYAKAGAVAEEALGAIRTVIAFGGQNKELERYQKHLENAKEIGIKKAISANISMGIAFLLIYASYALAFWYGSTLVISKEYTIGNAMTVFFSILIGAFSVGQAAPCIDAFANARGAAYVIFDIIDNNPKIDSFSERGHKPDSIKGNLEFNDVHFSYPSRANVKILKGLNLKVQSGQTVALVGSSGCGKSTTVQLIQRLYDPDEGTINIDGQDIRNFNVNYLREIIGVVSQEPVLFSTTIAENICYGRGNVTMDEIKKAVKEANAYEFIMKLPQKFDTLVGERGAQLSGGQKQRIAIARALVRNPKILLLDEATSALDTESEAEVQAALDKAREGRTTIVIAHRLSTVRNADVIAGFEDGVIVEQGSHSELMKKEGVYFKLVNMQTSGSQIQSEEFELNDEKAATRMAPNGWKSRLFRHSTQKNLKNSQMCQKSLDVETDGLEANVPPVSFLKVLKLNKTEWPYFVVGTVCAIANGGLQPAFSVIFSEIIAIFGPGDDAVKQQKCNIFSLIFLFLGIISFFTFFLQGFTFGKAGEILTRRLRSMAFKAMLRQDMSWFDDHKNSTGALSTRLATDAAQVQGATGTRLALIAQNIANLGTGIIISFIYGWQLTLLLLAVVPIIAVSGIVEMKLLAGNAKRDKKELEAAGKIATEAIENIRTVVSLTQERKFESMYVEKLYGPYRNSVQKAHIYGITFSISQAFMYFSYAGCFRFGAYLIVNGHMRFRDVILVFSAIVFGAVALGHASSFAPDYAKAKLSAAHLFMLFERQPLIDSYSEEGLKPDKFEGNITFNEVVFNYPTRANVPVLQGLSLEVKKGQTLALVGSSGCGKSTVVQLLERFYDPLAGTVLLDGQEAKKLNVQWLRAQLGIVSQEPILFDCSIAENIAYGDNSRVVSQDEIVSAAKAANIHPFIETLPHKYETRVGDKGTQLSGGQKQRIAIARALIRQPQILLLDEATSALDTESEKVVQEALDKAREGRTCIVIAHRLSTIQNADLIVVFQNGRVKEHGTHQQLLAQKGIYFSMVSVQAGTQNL

Structure (SMILES)	IC50 (CDK5/p25) [µM]	inhibition of ABCB4-WT-mediated PC secretion compared to roscovitine (ABCB4-WT)	log IC50 on the PC secretion activity of ABCB4-WT (ABCB4-WT)	IC50 (ABCB4-WT) [µM]	IC50 (CDK2/A) [µM]	IC50 (DYRK1A) [µM]	relocalisation of ABCB4-I490T at bile canaliculi (ABCB4-I490T)	maturation (mature form) of ABCB4-I541F (ABCB4-I541F [1])	correction of ABCB4-I541F maturation (ABCB4-I541F [1])	PC secretion activity of ABCB4-I541F (residual activity) (ABCB4-I541F [2]) [%]	IC50 (CLK1) [µM]	IC50 (CK1) [µM]	relocalisation of ABCB4-I541F at bile canaliculi (ABCB4-I541F [3]; 25 μM)	relocalisation of ABCB4-I541F at bile canaliculi (ABCB4-I541F [3]; 100 μM)	IC50 (GSK3) [µM]
CC[C@@H](Nc1nc(NCc2cccc(F)c2)c2ncn(C3CCCC3)c2n1)C(=O)O [MRT2-235]	8.3	less inhibitory than the original molecule	−4.678	21	5.9	21	partially relocalised at bile canaliculi	significantly increase the expression of a mature form of ABCB4-I541F; also recorded: significant rescue of the maturation	dose-dependent correction of ABCB4-I541F maturation	19.0±3.4	11	7	partial relocalisation of ABCB4-I541F at bile canaliculi	partial relocalisation of ABCB4-I541F at bile canaliculi	> 10
CC[C@@H](Nc1nc(NCc2cccc(Cl)c2)c2ncn(C3CCCC3)c2n1)C(=O)O [MRT2-237]	7.7	less inhibitory than the original molecule	−4.533	29.3	3.4	13	partially relocalised at bile canaliculi	significantly increase the expression of a mature form of ABCB4-I541F; also recorded: significant rescue of the maturation	dose-dependent correction of ABCB4-I541F maturation	13.0±3.5	8.5	3.33	partial relocalisation of ABCB4-I541F at bile canaliculi	partial relocalisation of ABCB4-I541F at bile canaliculi	> 10
CC[C@@H](Nc1nc(NCc2ccc(Cl)c(F)c2)c2ncn(C3CCCC3)c2n1)C(=O)O [MRT2-243]	6.3	less inhibitory than the original molecule	−4.754	17.6	3	12	partially relocalised at bile canaliculi	significantly increase the expression of a mature form of ABCB4-I541F; also recorded: significant rescue of the maturation	dose-dependent correction of ABCB4-I541F maturation	22.5±6.2	20	6.1	partial relocalisation of ABCB4-I541F at bile canaliculi	partial relocalisation of ABCB4-I541F at bile canaliculi	> 10
